Test results: US10143704B2, “Methods for treating cancer” (Epizyme, Inc., priority 2013, dated 2018)

How the values were obtained:
MLL-r cells = experiment: Pre-clinical study of EPZ-5676: methyl mark inhibition and cell killing; format: cell-based; conditions: pre-clinical study plots, FIGS. 3A-3D
[1] = system: patients with MLL-r and MLL-PTD; experiment: Phase 1 dose escalation/expansion study of EPZ-5676 in leukemia patients; format: in vivo, human
Description: FIG. 1 is a summary of Phase 1 dose escalation study of EPZ-5676. […] The expansion stage of a Phase 1 study is enrolling adult patients with MLL-r and MLL-PTD who are being treated with 90 mg/m^2/day with uninterrupted administration.

CC(C)N(C[C@H]1O[C@@H](n2cnc3c(N)ncnc32)[C@H](O)[C@@H]1O)[C@H]1C[C@@H](CCc2nc3cc(C(C)(C)C)ccc3[nH]2)C1 [Compound A2, (2R,3R,4S,5R)-2-(6-amino-9H-purin-9-yl)-5-((((1r,3S)-3-(2-(5-(tert-butyl)-1H-benzo[d]imidazol-2yl)ethyl)cyclobutyl)(isopropyl)amino)methyl)tetrahydrofuran-3,4-diol]
effect of target methyl mark inhibition on cancer cells (MLL-r cells): selective killing of genetically defined cancer cells | safety: drug-related treatment discontinuations ([1]; adult patients with MLL-r and MLL-PTD, 90 mg/m^2/day uninterrupted administration, expansion stage of Phase 1): no drug-related treatment discontinuations | effect on leukemic cells in patients (micrographs) ([1]; patients with MLL-r, FIGS. 8A-8F): differentiation effect
